Reference: patent US11865110B2, “Thrombin inhibitors, formulations, and uses thereof” (VERSEON INTERNATIONAL CORPORATION, priority 2018, dated 2024)

Experiments:
[1] = Rat plasma stability; format: in vitro ADME; conditions: Sprague-Dawley; SD rat plasma, 37° C., time points to 160 min; read-out: Rat Plasma Stability t1/2
Method: (§1) Alongside a positive control of propantheline bromide, 8 μL of a 1 mM solution of each test compound in DMSO was placed in two wells of a Nunc™ 96-well plate called the “dilution plate.” To one well, 392 μL of HyClone™ water was added and mixed by a pipette. To the other well, 392 μL of mouse or rat plasma stabilized with sodium citrate purchased from Innovative Research was added and mixed by a pipette. The dilution plate was kept covered to reduce solvent evaporation and heated in an incubator at 37° C. At each of the time points enumerated below, the plate was removed from the incubator and 50 μL of the test compound/water or test compound/plasma solutions were transferred to a unique, corresponding well in a “quench plate” (96-well Costar® plate) that contains 150 μL of a quench solution that contains an internal standard (20 uM diclofenac in acetonitrile). The dilution plate was then returned to the incubator. This process was performed at 0, 5, 10, 20, 40, 80, and 160 minutes from the original mixing of the test compounds with the water or plasma in the dilution plate. After the quenching of the 160-minute time point, the quench plate was then centrifuged at 4° C. at 1000×g for 10 minutes. 100 μL of the supernatant of each well were then transferred to corresponding unique wells in a “read plate” (96-well Costar® plate) that were filled with 100 μL of HyClone™ water. The plate was then sealed and analyzed via UHPLC using a 10-μL sample injection through a Phenomenex® Kinetex column pre-equilibrated with the loading buffer (95:5 water:acetonitrile). The parameters were as follows. Mobile Phase A: water, 0.025% formic acid. Mobile Phase B: acetonitrile, 0.025% formic acid. Flow Rate: 0.5 mL/min. […] Half-life (t1/2) times were computed by using a chi-square analysis to fit the peak areas to an exponential decay model for compound concentration as a function of time.

[2] = Mouse plasma stability; format: in vitro ADME, mouse (CD-1); conditions: CD-1 mouse plasma, 37° C., time points to 160 min; read-out: Mouse Plasma Stability t1/2
Method: as §1

[3] = Rat liver microsome stability; format: in vitro ADME; conditions: Sprague-Dawley, pH 7.4; SD rat liver microsomes 0.5 mg/mL, NADPH, 37° C.; lower measurable bound 5
Method: In a 96-well Nunc™ plate, 1.5 μL of a 200 μM solution of the test compound in DMSO were placed in a well. This plate, the “Reaction Plate,” was then warmed to 37° C. in an oven. In a second 96-well Nunc™ plate, the “Quench Plate,” six wells were filled with 180 μL of an internal standard quench solution composed of 100 nM diclofenac in acetonitrile. These six wells correspond to the six time points for data collection: 0, 0.5, 5, 15, 30, and 60 minutes. “Assay Buffer” was prepared by combining 6.96 g potassium phosphate, dibasic, 1.36 g potassium phosphate, monobasic, and 0.30 g of magnesium chloride hexahydrate, then diluting to a final concentration of 500 mL in water and adjusting to pH 7.4, as needed. Assay Buffer was warmed to 37° C., and 12 mL were added to a 10-mg vial of NADPH. Then 300 μL of a 20 mg/mL liver microsome suspension were added to yield a 0.5 mg/mL liver microsome suspension. 300 μL of this liver microsome suspension was then added to the test compound solution in the Reaction Plate and mixed thoroughly with a pipette tip. At each time point, 30 μL of this mixture was transferred to the corresponding well of the Quench Plate. In between time points, the Reaction Plate was kept sealed and warmed in an incubator at 37° C. When the last time point had been completed, the quench plate was centrifuged at 4° C. at 1000×g for 10 minutes. Afterwards, 50 μL of the supernatant of each well was transferred to unique, corresponding wells of a 96-well Costar® plate, the “Analysis Plate,” filled with 150 μL of 50:50 acetonitrile:HyClone™ water. The Analysis Plate was then sealed with a pre-slit plate seal before analysis via an appropriate LCMS method with a 10 μL injection. The abstracted AUC data were then automatically plotted to calculate intrinsic clearance in μL/min/mg. This experiment was run alongside a positive and negative control. Due to the parameters of this procedure, one of skill in the art will appreciate that this assay has a lower measurable bound of 5 μL/min/mg; therefore, certain compounds have their clearances labeled as ≤5 μL/min/mg.

Row | Structure (SMILES) | half-life at 20 µM [1] | half-life at 20 µM [2] | microsomal CLint at 1 µM [3]
1 | CC(C)(C)C(=O)n1nc(-c2cccn(CCC(N)=O)c2=O)cc1NCc1ccc(Cl)s1 [Compound 8, 3-[3-(5-{[(5-chlorothiophen-2-yl)methyl]amino}-1-(2,2-dimethylpropanoyl)-1H-pyrazol-3-yl)-2-oxo-1,2-dihydropyridin-1-yl]propanamide] | 1.13 h | 2.67 h | –
2 | CC(C)(C)C(=O)n1nc(-c2cccn(CCC(=O)O)c2=O)cc1NCc1ccc(Cl)s1 [Compound 1, 3-[3-(5-{[(5-chlorothiophen-2-yl)methyl]amino}-1-(2,2-dimethylpropanoyl)-1H-pyrazol-3-yl)-2-oxo-1,2-dihydropyridin-1-yl]propanoic acid] | 1.13 to 1.83 h | ≥ 3 h | ≤ 5 µL/min/mg
3 | CC(C)(C)C(=O)n1nc(-c2cccn(CCCC(=O)O)c2=O)cc1NCc1ccc(Cl)s1 [Compound 5, 4-[3-(5-{[(5-chlorothiophen-2-yl)methyl]amino}-1-(2,2-dimethylpropanoyl)-1H-pyrazol-3-yl)-2-oxo-1,2-dihydropyridin-1-yl]butanoic acid] | 1.13 h | 3.83 h | 10 µL/min/mg
4 | O=C(O)CCn1cccc(-c2cc(NCc3ccc(Cl)s3)n(C(=O)c3ccoc3)n2)c1=O [Compound 12, 3-[3-(5-{[(5-chlorothiophen-2-yl)methyl]amino}-1-(furan-3-carbonyl)-1H-pyrazol-3-yl)-2-oxo-1,2-dihydropyridin-1-yl]propanoic acid] | 3 h | 3.67 h | –

Second part, the compound after the results:

Row | half-life at 20 µM [1] | half-life at 20 µM [2] | microsomal CLint at 1 µM [3] | Structure (SMILES)
5 | 1.13 h | 2.67 h | ≤ 5 µL/min/mg | CC(C)(N)Cn1cccc(-c2cc(NCc3ccc(Cl)s3)n(C(=O)c3ccoc3)n2)c1=O [Compound 9, 1-(2-amino-2-methylpropyl)-3-(5-{[(5-chlorothiophen-2-yl)methyl]amino}-1-(furan-3-carbonyl)-1H-pyrazol-3-yl)-1,2-dihydropyridin-2-one]
6 | ≥ 5 h | ≥ 5 h | 14 µL/min/mg | CCC(C)(C)C(=O)n1nc(-c2cccn(CCC(=O)O)c2=O)cc1NCc1ccc(Cl)s1 [Compound 11, 3-[3-(5-{[(5-chlorothiophen-2-yl)methyl]amino}-1-(2,2-dimethylbutanoyl)-1H-pyrazol-3-yl)-2-oxo-1,2-dihydropyridin-1-yl]propanoic acid]
7 | ≥ 5 h | ≥ 5 h | ≤ 5 µL/min/mg | O=C(O)CCn1cccc(-c2cc(NCc3ccc(Cl)s3)[nH]n2)c1=O [Compound 2, 3-[3-(5-{[(5-chlorothiophen-2-yl)methyl]amino}-1H-pyrazol-3-yl)-2-oxo-1,2-dihydropyridin-1-yl]propanoic acid]
8 | 3 h | ≥ 5 h | ≤ 5 µL/min/mg | CC(C)(C)C(=O)n1nc(-c2cccn(CC(=O)O)c2=O)cc1NCc1ccc(Cl)s1 [Compound 4, 2-[3-(5-{[(5-chlorothiophen-2-yl)methyl]amino}-1-(2,2-dimethylpropanoyl)-1H-pyrazol-3-yl)-2-oxo-1,2-dihydropyridin-1-yl]acetic acid]
9 | ≥ 5 h | ≥ 5 h | ≤ 5 µL/min/mg | O=C(O)Cn1cccc(-c2cc(NCc3ccc(Cl)s3)[nH]n2)c1=O [Compound 3, 2-[3-(5-{[(5-chlorothiophen-2-yl)methyl]amino}-1H-pyrazol-3-yl)-2-oxo-1,2-dihydropyridin-1-yl]acetic acid]
